Measured values as given in ChEMBL document CHEMBL1144363, “Human immunodeficiency virus-reverse transcriptase inhibition and hepatitis C virus RNA-dependent RNA polymerase inhibition activities of fullerene derivatives” (Bioorg Med Chem Lett, 2005).

Experiments:
[1] = biological target: RNA-directed RNA polymerase (Hepacivirus hominis, UniProt O39930); assay: Inhibitory concentration against Hepatitis C virus-RNA-dependent RNA polymerase
[2] = biological target: Human immunodeficiency virus type 1 reverse transcriptase (Human immunodeficiency virus 1, UniProt Q72547); assay: Inhibitory concentration against HIV-Reverse transcriptase

Chain of RNA-directed RNA polymerase (O39930 whole entry): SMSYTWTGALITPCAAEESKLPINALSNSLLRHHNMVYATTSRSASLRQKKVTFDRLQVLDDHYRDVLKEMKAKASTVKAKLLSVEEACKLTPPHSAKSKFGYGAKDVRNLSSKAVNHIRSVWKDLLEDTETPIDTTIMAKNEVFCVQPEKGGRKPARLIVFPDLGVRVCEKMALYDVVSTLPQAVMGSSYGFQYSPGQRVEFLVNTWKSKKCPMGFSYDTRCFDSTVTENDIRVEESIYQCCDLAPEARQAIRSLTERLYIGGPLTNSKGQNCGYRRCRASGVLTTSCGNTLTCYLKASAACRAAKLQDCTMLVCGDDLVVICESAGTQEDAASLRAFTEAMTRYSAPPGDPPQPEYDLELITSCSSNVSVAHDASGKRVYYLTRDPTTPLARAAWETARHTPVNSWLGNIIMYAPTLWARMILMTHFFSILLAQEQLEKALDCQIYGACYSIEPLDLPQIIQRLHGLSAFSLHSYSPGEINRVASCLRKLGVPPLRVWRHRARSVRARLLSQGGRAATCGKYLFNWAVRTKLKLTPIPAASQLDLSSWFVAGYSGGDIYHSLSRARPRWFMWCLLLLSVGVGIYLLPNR

## CCCCCCCCCC[N@+]1(C)C[C@@]23c4c5c6c7c8c9c%10c%11c%12c%13c%14c%15c%16c%17c%18c%19c%20c%21c(c2c2c4c4c6c9c6c4c4c2c%21c2c%19c(c%18%14)c9c%13c%10c6c9c24)C2=C4c6c(c-%16c9c%10c6[C@H]([C@@H]5C7=C%10[C@]5(C[N+](C)(C)C[C@]8%115)[C@H]9[C@H]%15%12)[C@@]43C1)[C@@H]%17[C@H]2%20
[1]
  IC50: 1400 nM
[2]
  IC50: 1300 nM

## O=C(O)C1(C(=O)O)[C@]23c4c5c6c7c8c9c%10c%11c%12c%13c%14c%15c%16c%17c%18c%19c%20c(c2c2c4c4c6c6c8c%10c8c%12c%10c%14c(c%15%19)c%12c%20c2c2c4c6c8c%10c%122)[C@@H]%18[C@H]2c4c6c8c%10c(c4-%17)[C@@H]%16[C@H]%13[C@@]%114C(C(=O)O)(C(=O)O)[C@]%104C=9[C@H]8[C@@H]7C5=C6[C@@]213
[1]
  IC50: 3200 nM
[2]
  IC50: 1200 nM

## C[N+]1(C)C[C@@]23C4=C5C6=C7c8c9c%10c%11c%12c%13c%14c%15c%16c%17c%18c%19c%20c%21c%22c%23c%24c%25c%26c%27c(c(c8c8c%10c%13c(c%278)c8c%14c%17c(c%24c%22%18)c%268)[C@@]72C1)[C@H]%25[C@@H]3C=%23[C@@H]4[C@H]%21c1c5c2c3c(c1-%20)[C@H]([C@H]%19%16)[C@@]1(C[N+](C)(C)C[C@]%12%151)C3=C%11[C@H]9[C@H]62
[1]
  IC50: 240 nM
[2]
  IC50: 1600 nM

## CCCCn1c(=O)c(C2=NS(=O)(=O)c3ccccc3N2)c(O)c2ccccc21
[1]
  IC50: 100 nM

## O=C(O)CN1C[C@@]23C4=C5c6c7c8c9c(c%10c%11c%12c%13c%14c%15c%16c%17c%18c%19c%20c%21c%22c%23c(c6c6c8c8c%24c9c%11c9c(c%16%12)c%17c%11c%19c%12c%21c%23c6c8c%12c%11c9%24)[C@@H]5[C@@H]5C=%22[C@H]6c8c(c-%14c(c4c85)[C@@H]2[C@H]%13%10)[C@H]%15[C@@H]%18[C@@H]%206)[C@]73[C@@H]1C(=O)O
[1]
  IC50: > 10000 nM
[2]
  IC50: 1000 nM

## C[N+]1(C)C[C@]23c4c5c6c7c8c9c%10c%11c%12c%13c%14c%15c%16c%17c%18c%19c%20c%21c(c2c2c4c4c6c9c6c4c4c2c%21c2c(c%16%20)c%15c9c%13c%10c6c9c24)[C@@H]%19[C@H]2c4c6c9c%10c(c4-%18)[C@@H]%17[C@@H]%14C%12=C%10[C@]4(C[N+](C)(C)C[C@@]8%114)[C@H]9[C@@H]7C5=C6[C@]23C1
[1]
  IC50: 310 nM
[2]
  IC50: 1700 nM

## C[N+]1(C)C[C@]23c4c5c6c7c8c9c%10c%11c%12c%13c%14c%15c%16c%17c%18c%19c%20c(c2c2c4c4c6c6c8c%10c8c%12c%10c%14c(c%15%19)c%12c%20c2c2c4c6c8c%10c%122)[C@@H]%18[C@H]2c4c6c8c%10c(c4-%17)[C@@H]%16[C@H]%13[C@@]%114C[N+](C)(C)C[C@]%104C=9[C@H]8[C@@H]7C5=C6[C@]23C1
[1]
  IC50: 310 nM
[2]
  IC50: 1400 nM
